According to patent US4784845A, “Emulsion compostions for the parenteral administration of sparingly water soluble ionizable hydrophobic drugs” (American Cyanamid Company, priority 1985, dated 1988):
Converted amounts (≈) assume the structure as drawn. Where a name gives a salt, the structure may show the parent alone.

Key:
[1] = cited from earlier work; for Ambient Solution pH: commercial drug solution; for pH beyond which significant precipitation occurs: intravenous infusion, commercial drugs
[2] = Solubility of bisantrene in selected media and biological fluids (Table IB); type: physicochemical
[3] = Partitioning of bisantrene in blood; type: in vitro ADME; settings: inferred from solubility characteristics and other information
Description: In serum and plasma, however, due to increase in the pH, the solubility drops considerably and this may be the reason that the drug precipitates at the point of infusion. […] Thus, if the drug can be kept in solution long enough to allow complete dilution in the entire blood volume, then the partitioning should take place without the intermediate precipitation.

[4] = cited from earlier work
[5] = challenge tests, benzyl alcohol vs parabens as preservative; cited from earlier work
[6] = dissolved in oil phase of soybean oil emulsion, parenteral; cited from earlier work
[7] = propylene glycol, benzyl alcohol and ethyl alcohol as solvents; cited from earlier work
[8] = test system: Marginal Ear Vein of Rabbits; test: Peripheral vein irritation on intravenous infusion, rabbits (Table IV); type: in vivo, rabbit; parameters: key: +: Positive or present; -: Negative or absent; settings: 2 hour i.v. infusion, gross postmortem one day after
Experimental: The emulsion drug delivery system formulation of Emulsions 3 and 4 in Table III was tested in two species of animals, for peripheral vein irritation in order to determine the occurrence of local injection site adverse reactions. […] The two species of animals used were rabbits and dogs. The formulations were given intravenously in a peripheral vein using a Butterfly infusion set (Becton, Dickenson Co., Inc., Rutherford, N.J.). The marginal ear vein was used in the rabbit and the saphenous or the cephalic vein of the leg was used in the dog.
The formulations were given by slow intravenous infusion using a Sage syringe pump (Sage Instruments, Orion Research Inc., Cambridge, MA) over a 2 hour period. The animals were restrained but unanesthetized during the infusion. After the infusion, the animals were returned to their cages and offered food. The animals were sacrificed one day after the infusion.
At sacrifice, the infused vein was opened from the point of infusion and cardiad for several centimeters. The condition of the vein, its intima and the surrounding parenchyma, as well as the presence or absence of orange-yellow material and/or clots in the vein, were recorded in Tables IV and V.

mammals = settings: aqueous solution, intravenous; cited from earlier work
[9] = Absorption and excretion of antiarthritic triazine candidate dosage forms; settings: in vivo
Experimental: (§1) Because the antiarthritic triazine compound is a base, organic acids as counter-ions were studied to improve drug solubility. […] Additional drug complexes were prepared with various organic and inorganic acids. […] The inherent insolubility of the drug appears to be responsible, to some extent, for the preceding results. In order to overcome the drug insolubility problem one of the objectives considered was to design a dosage form which would improve drug absorption when given by intravenous, intramuscular or intra-articular injection.

physchem = type: physicochemical
Experimental: as §1

normal human subjects = settings: single doses of 2.0 g, 24 subjects, cited from earlier work
soft tissues = settings: extravasation about the site of attempted intravenous administration; cited from earlier work

SMILES: C[C@H](N)[C@H](O)c1cccc(O)c1 [Aramine, metaraminol]
- Ambient Solution pH [1]: 3.60
- pH beyond which significant precipitation occurs [1]: 5.80

SMILES: COc1ccc2c(c1)N(C[C@H](C)CN(C)C)c1ccccc1S2 [Nozinan, levomepromize]
- Ambient Solution pH [1]: 4.38
- pH beyond which significant precipitation occurs [1]: 6.50

SMILES: C(=N\NC1=NCCN1)/c1c2ccccc2c(/C=N/NC2=NCCN2)c2ccccc12 [Bisantrene, bis(2-imidazolen-2-ylhydrazone)-9,10-anthracenedicarboxaldehyde]
- solubility ([2]; 5% dextrose solution, pH 4.6): 10000 µg/mL (≈ 25100 µM)
- solubility ([2]; Plasma, pH 7.7-8.2): 90 µg/mL (≈ 226 µM)
- solubility ([2]; Whole Blood, pH 7.9): 400 µg/mL (≈ 1000 µM)
- solubility ([2]; normal saline, pH 5.5): 2000 µg/mL (≈ 5020 µM)
- solubility ([2]; serum, pH 7.8): 27 µg/mL (≈ 67.8 µM)
- partitioning into erythrocytes [3]: eventually partitions into the erythrocytes

SMILES: OCc1ccccc1 [benzyl alcohol]
- acute systemic toxicity ([4]; 0.9% (w/v), intravenous): absence of acute systemic toxicity
- half-life ([4]; in vivo, iv): 1.5 h
- volume of distribution ([4]; in vivo): widespread tissue dissemination
- antibacterial activity [5]: higher antibacterial activity

SMILES: O=[N+]([O-])OCC(CO[N+](=O)[O-])O[N+](=O)[O-] [nitroglycerin]
- pharmacological effects compared with water solution of the sodium salts [6]: nearly equal

SMILES: CC1CC(OC(=O)C(O)c2ccccc2)CC(C)(C)C1 (stereo not drawn) [cyclandelate]
- pharmacological effects compared with water solution of the sodium salts [6]: nearly equal

SMILES: CN1C(=O)CN=C(c2ccccc2)c2cc(Cl)ccc21 [diazepam]
- pharmacological effects compared with water solution of the sodium salts [6]: nearly equal
- local reactions upon intravenous injection [7]: may not only cause pain upon intravenous injection, but also thrombophlebitis

SMILES: C(=N\NC1=NCCN1)/c1c2ccccc2c(/C=N/NC2=NCCN2)c2ccccc12 [Bisantrene HCl]
- External: Reddened ([8]; sex F): +
- External: Yellow Deposit ([8]; sex F): +
- Subcutaneous: Hemorrhage ([8]; sex F): -
- Vascular Lumen: Yellow Deposit ([8]; sex F): +
- External: Reddened ([8]; sex M): -
- External: Swollen ([8]; sex M): -
- External: Yellow Deposit ([8]; sex M): -
- Subcutaneous: Edema ([8]; sex M): +
- Subcutaneous: Hemorrhage ([8]; sex M): -
- Subcutaneous: Yellow Deposit ([8]; sex M): -
- Vascular Lumen: Blood Clot ([8]; sex M): -
- Vascular Lumen: Yellow Deposit ([8]; sex M): +

SMILES: OCCN(CCO)c1nc(N2CCCCC2)c2nc(N(CCO)CCO)nc(N3CCCCC3)c2n1 [Persantine, dipyridamole]
- Ambient Solution pH [1]: 3.12
- pH beyond which significant precipitation occurs [1]: 5.10

SMILES: N#CC(CCN1CCC(C(N)=O)(N2CCCCC2)CC1)(c1ccccc1)c1ccccc1 [Dipidolor, piritramide]
- Ambient Solution pH [1]: 3.97
- pH beyond which significant precipitation occurs [1]: 4.50

SMILES: CC(C)NCC(O)COc1cccc2ccccc12 (racemic) [Inderal, propanolol]
- Ambient Solution pH [1]: 3.50
- pH beyond which significant precipitation occurs [1]: 6.00

SMILES: C(=N\NC1=NCCN1)/c1c2ccccc2c(/C=N/NC2=NCCN2)c2ccccc12 [bisantrene dihydrochloride]
- chemical phlebitis (mammals): chemical phlebitis

SMILES: CC(C)(C)C(C)(C)Nc1nc(NC(C)(C)C(C)(C)C)nc(N2CC3CCC(CC3)C2)n1 [Antiarthritic Triazine Compound, 3-[4,6-bis[(1,1-2,2-tetramethylpropyl)amino]-s-triazin-2-yl]-3-azabicyclo[3.2.2]nonane]
- parenteral absorption [9]: negligible
- oral absorption ([9]; po): slightly better
- dose excreted ([9]; oral, candidate dosage forms, preliminary, read-out: compound excreted in the feces): ~90%
- increase of solubility (physchem): 500 to 1000 µg/mL
- solubility (physchem): 300 µg/mL (≈ 697 µM)
- solubility in water (physchem): insignificant solubility in water
- solubility range (physchem): 500 to 1500 µg/mL
- solubility (physchem; 1,3-butylene glycol, organic solvent or mixture): 300 µg/mL (≈ 697 µM)
- solubility (physchem; benzyl alcohol, organic solvent or mixture): 800 µg/mL (≈ 1860 µM)
- solubility (physchem; benzyl benzoate, organic solvent or mixture): 1300 µg/mL (≈ 3020 µM)
- solubility (physchem; brij 35 2% solution): 50 µg/mL (≈ 116 µM)
- solubility (physchem; cremophor el, organic solvent or mixture): 200 µg/mL (≈ 464 µM)
- solubility (physchem; dimethyl acetamide, organic solvent or mixture): 700 µg/mL (≈ 1630 µM)
- solubility (physchem; emulphor el-620p, organic solvent or mixture): < 100 µg/mL
- solubility (physchem; ethanol usp, organic solvent or mixture): < 100 µg/mL
- solubility (physchem; propylene glycol isostearate, organic solvent or mixture): 1500 µg/mL (≈ 3480 µM)
- solubility (physchem; propylene glycol, organic solvent or mixture): < 100 µg/mL
- solubility (physchem; triacetin, organic solvent or mixture): 100 µg/mL (≈ 232 µM)

SMILES: O=C(CCCN1CC=C(n2c(=O)[nH]c3ccccc32)CC1)c1ccc(F)cc1 [Droperidol]
- Ambient Solution pH [1]: 3.24
- pH beyond which significant precipitation occurs [1]: 5.83

SMILES: CC(=O)Nc1ccc(OCC(O)CNC(C)C)cc1 (stereo not drawn) [Eraldin, practolol]
- Ambient Solution pH [1]: 5.80
- pH beyond which significant precipitation occurs [1]: 7.40

SMILES: C[C@H]1C[C@@H]2[C@H]([C@@H](O)C[C@@]3(C)[C@H]2CC[C@]3(O)C(=O)COC(=O)CCC(=O)O)[C@@]2(C)C=CC(=O)C=C12 [methylprednisolone sodium succinate]
- tolerability / side effects (normal human subjects; benzyl alcohol or paraben preservative): well tolerated and no important drug-related side effects were encountered
- changes in vital signs, electrocardiograms, electroencephalograms, or laboratory parameters (normal human subjects): No clinically significant changes
- expected corticosteroid induced changes (normal human subjects): reversible

SMILES: COc1cccc2c1C(=O)c1c(O)c3c(c(O)c1C2=O)C[C@@](O)(C(=O)CO)C[C@@H]3O[C@H]1C[C@H](N)[C@H](O)[C@H](C)O1 [Adriamycin]
- tissue damage on extravasation (soft tissues): massive tissue necrosis

SMILES: CN(C)CCCN1c2ccccc2Sc2ccccc21 [Prazine, promazine]
- Ambient Solution pH [1]: 4.85
- pH beyond which significant precipitation occurs [1]: 7.10

SMILES: CC(CN1c2ccccc2Sc2ccccc21)N(C)C (stereo not drawn) [Phenergan, promethazine]
- Ambient Solution pH [1]: 5.68
- pH beyond which significant precipitation occurs [1]: 6.42

SMILES: OCCOCCN1CCN(C(c2ccccc2)c2ccc(Cl)cc2)CC1 (stereo not drawn) [Atarax, hydroxyzine]
- Ambient Solution pH [1]: 5.60
- pH beyond which significant precipitation occurs [1]: 6.40
